These are literature values, as cited in US20080166695A1, “Solution for the storage and perfusion of organs awaiting transplantation” (Sigma-Tau Industrie Farmaceutiche Riunite S.p.A., priority 2001, published 2008).

For this data set, the system named is isolated rabbit heart. The note with it: isolated rabbit heart perfused with whole blood with L-carnitine added.

In the case of `C[N+](C)(C)C[C@H](O)CC(=O)[O-]` [L-carnitine], the “recovery of cardiac functions” value is “protective effect”.
